Experimental data: paper PMC11198769, “Enhancement of transcription efficiency by TAR-Tat system increases the functional expression of human olfactory receptors” (PLOS ONE, 2024)
Read-outs that look alike come from different tables or passages of the source.

Columns and labels:
Test in all cases: hOR assay (GloSensor cAMP luciferase), dose-response
Assay type in all cases: cell-based
[1] = target: T1, OR5K1 (Homo sapiens, UniProt Q8NHB7)
T1 construct: Lucy tag (N); FLAG (N); Rho tag (N); expressed in transfected cells; host or cells: Flp-In T-REx-293 cells stably expressing RTP1S, Gαolf and Ric8-b
T1 sequence (Q8NHB7 1-308): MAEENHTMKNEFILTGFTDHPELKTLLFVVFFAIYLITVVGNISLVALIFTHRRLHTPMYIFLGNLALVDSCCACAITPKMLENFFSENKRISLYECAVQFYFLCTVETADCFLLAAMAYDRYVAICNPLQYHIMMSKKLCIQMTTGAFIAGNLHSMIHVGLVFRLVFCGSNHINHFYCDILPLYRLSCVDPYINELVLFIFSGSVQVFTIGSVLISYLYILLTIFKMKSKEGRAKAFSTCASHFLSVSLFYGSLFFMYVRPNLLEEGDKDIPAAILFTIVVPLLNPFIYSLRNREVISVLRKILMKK

[2] = target: T2, OR2W1 (Homo sapiens, UniProt Q9Y3N9); conditions: for EC50: read-out: EC50 of n-hexanal concentration-response relationship
T2 construct: Lucy tag (N); FLAG (N); Rho tag (N); expressed in transfected cells; host or cells: Flp-In T-REx-293 cells stably expressing RTP1S, Gαolf and Ric8-b
T2 sequence (Q9Y3N9 1-320): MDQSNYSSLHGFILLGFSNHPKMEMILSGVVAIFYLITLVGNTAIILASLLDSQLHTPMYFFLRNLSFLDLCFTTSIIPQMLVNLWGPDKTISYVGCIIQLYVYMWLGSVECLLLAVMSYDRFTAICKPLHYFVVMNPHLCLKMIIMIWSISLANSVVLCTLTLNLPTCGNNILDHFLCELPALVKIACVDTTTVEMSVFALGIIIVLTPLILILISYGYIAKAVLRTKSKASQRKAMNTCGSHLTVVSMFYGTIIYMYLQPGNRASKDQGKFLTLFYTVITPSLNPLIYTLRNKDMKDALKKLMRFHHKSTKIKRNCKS

[3] = target: T3, OR2M3 (Homo sapiens, UniProt Q8NG83)
T3 construct: Lucy tag (N); expressed in transfected cells; host or cells: Flp-In T-REx-293 cells stably expressing RTP1S, Gαolf and Ric8-b
T3 sequence (Q8NG83 1-312): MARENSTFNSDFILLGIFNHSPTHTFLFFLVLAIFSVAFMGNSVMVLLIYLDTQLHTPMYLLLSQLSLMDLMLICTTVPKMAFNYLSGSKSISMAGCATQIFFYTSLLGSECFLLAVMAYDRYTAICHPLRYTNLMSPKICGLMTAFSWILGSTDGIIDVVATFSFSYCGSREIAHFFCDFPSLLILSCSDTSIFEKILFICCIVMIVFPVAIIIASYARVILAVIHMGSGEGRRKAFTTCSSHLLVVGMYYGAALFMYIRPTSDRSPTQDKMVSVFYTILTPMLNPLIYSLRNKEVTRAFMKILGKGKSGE

[4] = target: T4, OR5M3 (Homo sapiens, UniProt Q8NGP4); conditions: OR5M3, with or without the TAR-Tat system
T4 construct: Lucy tag (N); FLAG (N); Rho tag (N); expressed in transfected cells; host or cells: Flp-In T-REx-293 cells stably expressing RTP1S, Gαolf and Ric8-b
T4 sequence (Q8NGP4 1-307): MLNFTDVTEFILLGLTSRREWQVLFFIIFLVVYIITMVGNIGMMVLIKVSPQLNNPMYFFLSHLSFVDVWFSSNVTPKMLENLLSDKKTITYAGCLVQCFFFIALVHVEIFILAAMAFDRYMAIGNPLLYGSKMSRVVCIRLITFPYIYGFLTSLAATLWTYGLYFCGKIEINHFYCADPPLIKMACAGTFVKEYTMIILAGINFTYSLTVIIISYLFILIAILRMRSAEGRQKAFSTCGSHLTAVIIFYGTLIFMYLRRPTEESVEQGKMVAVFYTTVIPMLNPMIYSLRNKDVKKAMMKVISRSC

[5] = target: T5, OR10A2 (Homo sapiens, UniProt Q9H208); conditions: OR10A2, with or without the TAR-Tat system
T5 construct: Lucy tag (N); expressed in transfected cells; host or cells: Flp-In T-REx-293 cells stably expressing RTP1S, Gαolf and Ric8-b
T5 sequence (Q9H208 1-303): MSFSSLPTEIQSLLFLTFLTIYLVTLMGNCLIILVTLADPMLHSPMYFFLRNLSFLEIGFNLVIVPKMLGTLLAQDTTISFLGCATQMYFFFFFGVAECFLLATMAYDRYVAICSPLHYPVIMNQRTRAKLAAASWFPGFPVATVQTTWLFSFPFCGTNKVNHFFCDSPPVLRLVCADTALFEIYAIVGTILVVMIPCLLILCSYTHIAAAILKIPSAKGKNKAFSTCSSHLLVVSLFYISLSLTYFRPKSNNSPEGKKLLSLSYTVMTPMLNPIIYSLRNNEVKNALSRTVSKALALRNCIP

EC50 ([1]; OR5K1/pHEK (with TAR-Tat system), read-out: EC50 of n-hexanal concentration-response relationship): 11 µM
EC50 ([2]; OR2W1/pBApo (without TAR-Tat system)): 21 µM
EC50 ([2]; OR2W1/pHEK (with TAR-Tat system)): 60 µM
increase of maximum value of dose-response curve with the TAR-Tat system ([2]; OR2W1/pHEK versus OR2W1/pBApo): 2.0 fold
mode of action on OR2M3 ([3]; OR2M3/pHEK plasmid): inverse agonist
concentration-dependent response to n-hexanal [4]: no concentration-dependent response
concentration-dependent response to n-hexanal [5]: no concentration-dependent response
Structure (SMILES): CCCCCC=O [n-hexanal]
concentration-dependent response to n-hexanal ([1]; OR5K1, with and without the TAR-Tat system): concentration-dependent responses only with the TAR-Tat system
concentration-dependent response to n-hexanal ([2]; OR2W1, with and without the TAR-Tat system): Concentration-dependent responses were observed
suppression of the active response of OR2M3 to agonist ([3]; coadministered with 500 μM 3-mercapto-2-methyl-1-pentanol, OR2M3/pHEK plasmid): suppressed in an n-hexanal concentration-dependent manner
inhibitory effect on the constitutive activity of OR2M3 (luminescence values) ([3]; with and without the TAR-Tat system): decreased in an n-hexanal concentration-dependent manner only in the case with the TAR-Tat system
